Common to all, as to assay type: biochemical
In test [1] the target is T1, MGLL (Mus musculus, UniProt O35678).
T1 construct: Brain; from tissue; host or cells: mouse brain proteome
T1 sequence (O35678 1-303): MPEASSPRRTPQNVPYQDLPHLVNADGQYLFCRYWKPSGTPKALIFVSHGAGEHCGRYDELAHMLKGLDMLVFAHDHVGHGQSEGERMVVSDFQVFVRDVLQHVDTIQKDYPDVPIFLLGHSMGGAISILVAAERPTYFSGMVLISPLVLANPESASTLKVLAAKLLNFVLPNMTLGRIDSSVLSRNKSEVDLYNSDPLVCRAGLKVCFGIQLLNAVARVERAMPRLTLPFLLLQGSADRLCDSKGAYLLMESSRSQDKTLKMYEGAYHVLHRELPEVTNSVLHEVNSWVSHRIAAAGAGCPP
Put plainly: In vitro competitive activity-based protein profiling, mouse brain proteome. The procedure:
[Worded in the source for another species; this species is reported under the same test.] (§1) Proteomes (human prefrontal cortex or cell membrane fractions) (50 μL, 1.0 mg/mL total protein concentration) were preincubated with varying concentrations of inhibitors at 37° C. After 30 min, FP—Rh or HT-01 (1.0 μL, 50 μM in DMSO) was added and the mixture was incubated for another 30 min at room temperature. Reactions were quenched with SDS loading buffer (15 μL-4×) and run on SDS-PAGE.

Test [2] has as its target T2, ABHD6 (Mus musculus, UniProt Q8R2Y0).
T2 construct: Brain; from tissue; host or cells: mouse brain proteome
T2 sequence (Q8R2Y0 1-336): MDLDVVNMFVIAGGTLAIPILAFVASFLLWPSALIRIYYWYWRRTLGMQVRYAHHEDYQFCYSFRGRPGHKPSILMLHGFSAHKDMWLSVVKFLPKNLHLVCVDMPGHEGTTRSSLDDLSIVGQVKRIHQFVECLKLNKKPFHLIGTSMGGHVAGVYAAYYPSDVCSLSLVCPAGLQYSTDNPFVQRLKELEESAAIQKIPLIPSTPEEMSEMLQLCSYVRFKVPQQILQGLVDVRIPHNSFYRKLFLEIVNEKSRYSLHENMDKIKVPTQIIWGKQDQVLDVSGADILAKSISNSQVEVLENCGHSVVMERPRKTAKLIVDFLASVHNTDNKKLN
Put plainly: In vitro competitive activity-based protein profiling, mouse brain proteome, ABHD6. The conditions noted are these: for IC50: mouse. Here is the method:
[Worded in the source for another target; this target is reported under the same test.] as §1

Test [3] concerns the target T3, MAGL (Homo sapiens, UniProt Q99685).
T3 construct: Proteomes (human prefrontal cortex or cell membrane fractions); from tissue
T3 sequence (Q99685 1-303): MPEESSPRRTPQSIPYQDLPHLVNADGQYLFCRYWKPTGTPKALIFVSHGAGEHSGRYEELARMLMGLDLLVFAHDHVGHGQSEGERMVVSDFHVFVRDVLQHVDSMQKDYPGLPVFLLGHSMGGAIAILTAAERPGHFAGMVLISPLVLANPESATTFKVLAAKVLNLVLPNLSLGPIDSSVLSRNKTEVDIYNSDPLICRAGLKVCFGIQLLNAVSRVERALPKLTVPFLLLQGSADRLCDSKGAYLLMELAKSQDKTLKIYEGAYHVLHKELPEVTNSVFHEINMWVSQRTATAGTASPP
The test is described as follows: In vitro competitive activity-based protein profiling (gel-based, FP-Rh or HT-01 probe). The conditions noted are these: PC3 proteome; for IC50: read-out: IC50 MGLL PC3 (Human). Here is the method:
Compounds are tested to assess their MAGL and serine hydrolase activity using the following in vitro and in vivo assays.
as §1

Take `O=C(OC(C(F)(F)F)C(F)(F)F)N1CCC2(CCCN2C(=O)c2ccc(Cl)cc2)CC1` [Example 13, 1,1,1,3,3,3-Hexafluoropropan-2-yl 1-(4-chlorobenzoyl)-1,8-diazaspiro[4.5]decane-8-carboxylate]: the IC50 is below 100 nM in test [1] and 100 to 1000 nM in test [2].
For `CC(=O)N1CCCc2cccc(CN3CC4(CCN(C(=O)OC(C(F)(F)F)C(F)(F)F)CC4)C3)c21` [Example 15, 1,1,1,3,3,3-Hexafluoropropan-2-yl 2-((1-acetyl-1,2,3,4-tetrahydroquinolin-8-yl)methyl)-2,7-diazaspiro[3.5]nonane-7-carboxylate] the same measures were below 100 nM and 100 to 1000 nM.
Regarding `CCN1CCCc2cccc(CN3CC4(CCN(C(=O)OC(C(F)(F)F)C(F)(F)F)CC4)C3)c21` [Example 16, 1,1,1,3,3,3-Hexafluoropropan-2-yl 2-((1-ethyl-1,2,3,4-tetrahydroquinolin-8-yl)methyl)-2,7-diazaspiro[3.5]nonane-7-carboxylate], the IC50 in test [1] was below 100 nM; in test [2] it was 100 to 1000 nM.
In the same order, the values of `CCN1CCCc2cccc(CN3CCC4(CC3)CN(C(=O)OC(C(F)(F)F)C(F)(F)F)C4)c21` [Example 31, 1,1,1,3,3,3-Hexafluoropropan-2-yl 7-((1-ethyl-1,2,3,4-tetrahydroquinolin-8-yl)methyl)-2,7-diazaspiro[3.5]nonane-2-carboxylate] are above 1000 nM and 100 to 1000 nM.
In the same order, the values of `O=C(OC(C(F)(F)F)C(F)(F)F)N1CC2(CCN(Cc3c(N4CC5COCC5C4)cccc3C(F)(F)F)CC2)C1` (stereo not shown) [Example 33] are 100 to 1000 nM and 100 to 1000 nM.
In the case of `O=C(OC(C(F)(F)F)C(F)(F)F)N1CCC2(CC1)CN(Cc1ccc(Cl)cc1N1CCCC1)C2` [Example 34], the values for the half-inhibitory concentration (IC50) in test [1] and in test [2] were below 100 nM and 100 to 1000 nM, respectively.
For `O=C(OC(C(F)(F)F)C(F)(F)F)N1CCC2(CC1)CN(Cc1ccc(C(F)(F)F)cc1N1CCCCC1)C2` [Example 35] the same measures were below 100 nM and 100 to 1000 nM.
As to `O=C(OC(C(F)(F)F)C(F)(F)F)N1CCC2(CC1)CN(Cc1ccc(C(F)(F)F)cc1N1CCOCC1)C2` [Example 36, 1,1,1,3,3,3-Hexafluoropropan-2-yl 2-(2-morpholino-4-(trifluoromethyl)benzyl)-2,7-diazaspiro[3.5]nonane-7-carboxylate], the half-inhibitory concentration (IC50) was below 100 nM in test [1] and 100 to 1000 nM in test [2].
In the same order, the values of `O=C(OC(C(F)(F)F)C(F)(F)F)N1CCC2(CC1)CN(Cc1ccc(Cl)cc1N1CCCCC1)C2` [Example 38, 1,1,1,3,3,3-Hexafluoropropan-2-yl 2-(4-chloro-2-(piperidin-1-yl)benzyl)-2,7-diazaspiro[3.5]nonane-7-carboxylate] are 100 to 1000 nM and 100 to 1000 nM.
For `O=C(OC(C(F)(F)F)C(F)(F)F)N1CC2(CCN(Cc3ccc(C(F)(F)F)cc3N3CCOCC3)CC2)C1` [Example 40, 1,1,1,3,3,3-Hexafluoropropan-2-yl 7-(2-morpholino-4-(trifluoromethyl)benzyl)-2,7-diazaspiro[3.5]nonane-2-carboxylate] the same measures were below 100 nM and below 100 nM.
In the same order, the values of `O=C(OC(C(F)(F)F)C(F)(F)F)N1CCC2(CC1)CN(Cc1c(Cl)cccc1N1CCCC1)C2` [Example 42, 1,1,1,3,3,3-Hexafluoropropan-2-yl 2-(2-chloro-6-(pyrrolidin-1-yl)benzyl)-2,7-diazaspiro[3.5]nonane-7-carboxylate] are below 100 nM and 100 to 1000 nM.
With `O=C(OC(C(F)(F)F)C(F)(F)F)N1CCC2(CC1)CN(Cc1c(N3CCOCC3)cccc1C(F)(F)F)C2` [Example 43, 1,1,1,3,3,3-Hexafluoropropan-2-yl 2-(2-morpholino-6-(trifluoromethyl)benzyl)-2,7-diazaspiro[3.5]nonane-7-carboxylate], the figures for the 50% inhibitory concentration (IC50) in test [1] and in test [2] were below 100 nM and 100 to 1000 nM, respectively.
In the same order, the values of `O=C(OC(C(F)(F)F)C(F)(F)F)N1CCC2(CC1)CN(Cc1c(Cl)cccc1N1CCC(F)CC1)C2` [Example 47, 1,1,1,3,3,3-Hexafluoropropan-2-yl 2-(2-chloro-6-(4-fluoropiperidin-1-yl)benzyl)-2,7-diazaspiro[3.5]nonane-7-carboxylate] are below 100 nM and below 100 nM.
For `O=C(OC(C(F)(F)F)C(F)(F)F)N1CCC2(CC1)CN(Cc1c(Cl)cccc1N1CCC3(CCOCC3)C1)C2` [Example 48, 1,1,1,3,3,3-Hexafluoropropan-2-yl 2-(2-chloro-6-(8-oxa-2-azaspiro[4.5]decan-2-yl)benzyl)-2,7-diazaspiro[3.5]nonane-7-carboxylate] the same measures were below 100 nM and below 100 nM.
As for `O=C(O)C1CCN(c2ccc(CN3CCC4(CC3)CN(C(=O)OC(C(F)(F)F)C(F)(F)F)C4)cc2)CC1` [Example 66, 1-(4-((2-(((1,1,1,3,3,3-Hexafluoropropan-2-yl)oxy)carbonyl)-2,7-diazaspiro[3.5]nonan-7-yl)methyl)phenyl) piperidine-4-carboxylic acid], the “% Inh MGLL Brain (Mouse, μM)” value in test [1] is “## (## is between 25 and 75%)”. The “% Inh ABHD6 Brain (Mouse, μM)” value in test [2] (mouse brain proteome) was “### (### is ≥ 75%)”.
For the molecule `O=C(OC(C(F)(F)F)C(F)(F)F)N1CCC2(CC1)CN(Cc1ccc(Cl)c(Cl)c1)C2` [Example 67, 1,1,1,3,3,3-Hexafluoropropan-2-yl 2-(3,4-dichlorobenzyl)-2,7-diazaspiro[3.5]nonane-7-carboxylate], the IC50 in test [1] and in test [2] was below 100 nM each time.
Regarding `O=C(OC(C(F)(F)F)C(F)(F)F)N1CCC2(CC1)CN(Cc1cccc(Oc3ccccc3)c1)C2` [Example 78, 1,1,1,3,3,3-Hexafluoropropan-2-yl 2-(3-phenoxybenzyl)-2,7-diazaspiro[3.5]nonane-7-carboxylate], the half-inhibitory concentration (IC50) in test [1] and in test [2] was below 100 nM each time.
For the molecule `O=C(OC(C(F)(F)F)C(F)(F)F)N1CCC2(CC1)CN(Cc1ccc(N3CCCC3)cc1)C2` [Example 80, 1,1,1,3,3,3-Hexafluoropropan-2-yl 2-(4-(pyrrolidin-1-yl)benzyl)-2,7-diazaspiro[3.5]nonane-7-carboxylate], the IC50 in test [1] was below 100 nM; in test [2], above 1000 nM.
In the same order, the values of `O=C(OC(C(F)(F)F)C(F)(F)F)N1CCC2(CCCN2C(=O)c2ccc(C(F)(F)F)cc2)CC1` [Example 83, 1,1,1,3,3,3-Hexafluoropropan-2-yl 1-(4-(trifluoromethyl)benzoyl)-1,8-diazaspiro[4.5]decane-8-carboxylate] are below 100 nM and 100 to 1000 nM.
On to `CN(Cc1ccc(C(F)(F)F)cc1N1CCC(N2CCC[C@H]2C(=O)O)CC1)C1(C)CCN(C(=O)OC(C(F)(F)F)C(F)(F)F)CC1` [Example 163, (1-(2-(((1-(((1,1,1,3,3,3-Hexafluoropropan-2-yl)oxy)carbonyl)-4-methylpiperidin-4-yl)(methyl)amino)methyl)-5-(trifluoromethyl)phenyl)piperidin-4-yl)-L-proline], for which the “% Inh MGLL PC3 (Human, μM)” value in test [3] is given as “### (### is ≥ 75%)”. Further, the “% Inh MGLL Brain (Mouse, μM)” value in test [1] is listed as “### (### is ≥ 75%)”.
With `O=C(O)C1CCN(c2cc(S(F)(F)(F)(F)F)ccc2CN2CCC3(CC2)CCN(C(=O)OC(C(F)(F)F)C(F)(F)F)C3)CC1` [Example 222, 1-(2-((2-(((1,1,1,3,3,3-Hexafluoropropan-2-yl)oxy)carbonyl)-2,8-diazaspiro[4.5]decan-8-yl)methyl)-5-(pentafluoro-l6-sulfaneyl)phenyl) piperidine-4-carboxylic acid], in test [3], the IC50 fell in the range of 100 to 1000 nM.
The same measure, in the same setting: the same measure for `O=C(O)C1CCN(c2cc(CN3CCC4(CC3)CCN(C(=O)OC(C(F)(F)F)C(F)(F)F)C4)cc(S(F)(F)(F)(F)F)c2)CC1` [Example 226, 1-(3-((2-(((1,1,1,3,3,3-Hexafluoropropan-2-yl)oxy)carbonyl)-2,8-diazaspiro[4.5]decan-8-yl)methyl)-5-(pentafluoro-l6-sulfaneyl)phenyl) piperidine-4-carboxylic acid]: below 100 nM; for `CC1(OCc2cc(N3CCC(C(=O)O)CC3)cc(C(F)(F)F)c2)CCN(C(=O)OC(C(F)(F)F)C(F)(F)F)CC1` [Example 227]: below 100 nM.

These data come from patent US20210214375A1 (LUNDBECK LA JOLLA RESEARCH CENTER, INC., priority 2017, published 2021).
